Drawing on publication PMC7144397 (Molecules, 2020), this text covers IC50 for one compound.

This experiment concerns the target myotoxic Asp-49 phospholipase A2 (PLA2) from Crotalus durissus cumanensis venom. As to the kind of experiment: chromogenic PLA2 assay, […] nm, 96-well plate. Type of experiment: biochemical. The settings on record: substrate 4-nitro-3-octanoyloxybenzoic acid type (4N3OBA, 20 μL of 10 mM); 10 mM Tris-HCl, 10 mM CaCl2, 100 mM NaCl, pH 8.0; 37 °C; 20 μg PLA2, 30 min pre-incubation; from linear portion of the dose-r.

As usually defined, the IC50 is the point on the concentration scale where inhibition reaches its midpoint. Read a high IC50 as lower potency.

The compound `O=[N+]([O-])c1ccc(C(=S)SCc2ccccc2)cc1` [I, Benzyl 4-nitrobenzenecarbodithioate] yielded an IC50 of 55.6 ± 4.6 µM.
